Source: patent US20150291645A1, “ISOACTEOSIDE DERIVATIVE AND USE THEREOF” (Sinphar Pharmaceutical Co., Ltd., priority 2014, published 2015)

Legend:
[1] = tested on: Aβ40 in SH-SY5Y-APP695 cell medium; experiment: Inhibiting Aβ40 accumulation in culture medium of SH-SY5Y-APP695 cells (Human Aβ1-40 immunoassay, with MTT); format: cell-based; details: for effects of inhibiting Aβ40 accumulation: preliminary screening at lower concentration (10 and 20 μM), 24 hours
Protocol: Experimental method: Human neuroblastoma cell (SH-SY5Y-APP695), which expresses Swedish APP695 mutation, was incubated in a 3.5-cm culture dish until the cell concentration reached 90% full. When passage, each well of a 24-well plate was seeded with 4×10^5 cells. The culture medium was replaced with 300 μL of chemical-defined medium, which is a DMEM/F12 medium including 5 mM of Hepes buffer, 0.6% of glucose, 3 mM of NaHCO3, […], 100 μg/mL of transferrin, 20 nM of progesterone, 60 μM putrescine, 30 nM of sodium selenite, and 2 μg/mL of heparin, the next day. 3 μL of the testing sample was added into each well, and each concentration of each sample included 4 groups. After the cells were placed in an incubator (37° C., 5% CO2) and treated with the samples for 24 hours, the culture medium was collected and analyzed the amount of Aβ40 in the culture medium after treated by the samples through Human Aβ1-40 Immunoassay kits (Cat.KHB3482, Life Technologies). The cells treated by the samples were analyzed by MTT assay to evaluate the toxicity to the cells caused by sample treatment.
The testing concentrations of Sample 1 were 5 μM and 10 μM, and the testing concentrations of Samples 2-8 were 10 μM and 20 μM. The amount of Aβ40 in a SH-SY5Y-APP695 cell medium that there was no sample added as a control and set to 100%, and the amounts of Aβ40 in the medium after respectively treated by the testing samples were compared to the control and expressed in percentage. β-secretase inhibitor (β-SI) was used as a positive control. The experiment results are shown in FIGS. 1A-1D, which FIGS. 1A and 1C are result diagrams of the samples in inhibiting Aβ40 accumulation, and FIGS. 1B and 1D are result diagrams of the cell viability after treated by the samples. The results shown in FIGS. 1A-1D are mean±standard error of four experimental groups (n=4), and the statistical differences between the control and the testing samples were analyzed by Dunnett's multiple comparison test, which “*” represented p<0.05; “**” represented p<0.01; “***” represented p<0.001; and “****” represented p<0.0001.
Based on the experiment results of Experimental example 1, Sample 3, 4, and 6 having efficacy of inhibiting Aβ40 accumulation were selected. The testing concentrations of the samples were increased to 20, 50, and 100 μM, and were experimented using the method of Experimental example 1. FIG. 2A is a result diagram of the samples in inhibiting Aβ40 accumulation, and FIG. 2B is a result diagram of the cell viability after treated by the samples. The results shown in FIGS. 2A-2B are mean±standard error of four experimental groups (n=4), and the statistical differences between the control and the testing samples were analyzed by Dunnett's multiple comparison test, which “*” represented p<0.05; “**” represented p<0.01; “***” represented p<0.001; and “****” represented p<0.0001.

[2] = tested on: Human retinal pigment epithelium cells (ARPE-19); experiment: Protection of ARPE-19 cells against tert-butyl hydroperoxide oxidative damage (MTT); format: cell-based; details: 24 hours; for cell viability compared to the control / inhibition of human retinal pigment epithelium cell death: with tBHP, Sample 2 at 6.25, 12.5, 25 μM, Sample 8 at 8.75, 17.5, 35 μM, FIGS. 6A-6B
Protocol: Human retinal pigment epithelium cells (ARPE-19) were incubated in a DMEM/F12 cell culture medium (Life Technologies) containing 10% of fetal bovine serum (FBS), and were passaged using a 96-well plate after the cell concentration reached 90% full, which each well was seeded with 4.5×10^3 cells. Next day, Samples 2 and 8 were diluted with dimethyl sulfoxide (DMSO) to about 200 times of test concentration, and after that, appropriate amount of DMEM/F12 cell culture medium containing 5% fetal bovine serum was added and diluted to twice test concentration. Then, the resultant was mixed with 0.2 mM of tert-butyl hydroperoxide (tBHP, Sigma) in equal proportions to reach the test concentration (containing 0.5% of dimethyl sulfoxide). The diluted sample was added to the plate with the cells, which was placed in an incubator reacted for 24 hours, and the cell viability was analyzed by MTT solution. The absorbance was measured at a wavelength of 570 nm, and the cells not being treated by the medicine was a control, and the average absorbance of which was set to 100%. The cell viability of the cells being treated by the medicine was calculate by the following formula based on the measured absorbance:
Cell viability=(absorbance of the experimental group/average absorbance of the control)×100%.
The experiment results are shown in FIGS. 6A-6B, which show mean±standard error of six experimental groups (n=6). The statistical differences between damaging group (i.e. accepting damaging medicine, and no protective medicine) and testing medicine groups and the control group (Control, containing 0.5% of DMSO) were analyzed by Dunnett's multiple comparison test, which “*” represented p<0.05; “**” represented p<0.01; “***” represented p<0.001; and “****” represented p<0.0001.

Aβ40 = Aβ40 (Homo sapiens, UniProt P05067); experiment: Aβ40 aggregation, thioflavin T assay; format: biochemical; details: for inhibition at 20 µM / inhibition at 200 µM: 4 hours 37° C.; for inhibition at 20 µM: FIG. 3A; for inhibition at 200 µM: FIG. 3B; for inhibit Aβ40 accumulation (ThT assay): summary of Experimental example 3
Sequence of Aβ40 (P05067 672-711 limits assumed): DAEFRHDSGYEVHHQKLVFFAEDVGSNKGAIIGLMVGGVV
Protocol: Aβ40 aggregation: The Aβ40 stock was redissloved in DMSO to 10 mg/mL. Each group included 0.5 μL of 10 mg/mL Aβ40 and 4.5 μL of the testing sample diluted with Dulbecco's Phosphate-Buffered Saline (D-PBS). The concentrations of Sample 1 were 10 μM and 100 μM, and the concentrations of Sample 2-8 were 20 μM and 200 μM. The total reaction volume was 5 μL, and each concentration of each sample included 6 groups. After incubating in a 37° C. incubator for 4 hours, 200 μL of thioflavin T working solution (ThT working solution) was added and mixed thoroughly, which the thioflavin T working solution was 10 μM of thioflavin T dissolving in potassium phosphate buffer (PB buffer, pH 6.0). 200 μL of the mixture was placed into a black, clear bottom 96-well plate, and the ThT fluorescence intensity (Ex: 440 nm, Em: 482 nm) was measured to determine the level of Aβ40 aggregation. This experimental example used thioflavin T assay (ThT assay) to evaluate the level of Aβ40 aggregation. Since ThT and Congo red derivatives can form bonds with aggregated form of Aβ protein, the level of Aβ aggregation is higher when the amount of bonded ThT is more. By detecting the variation in the amount of ThT, the change in the level of Aβ aggregation can be estimated. The value of not reacting with any sample (i.e. only containing 0.5 μL of Aβ40 and 4.5 μL of D-PBS, which the final concentration of Aβ40 was 1 mg/mL) was a control and set to 100%, and isoacteoside (IsoA) was used as a positive control. The values of the testing samples were compared to the control and expressed in percentage, and the experiment results are shown in FIGS. 3A-3B. The results shown in FIGS. 3A-3B were mean±standard error of six experimental groups (n=6), and the statistical differences between the control and the testing samples were analyzed by Dunnett's multiple comparison test, which “*” represented p<0.05; “**” represented p<0.01; “***” represented p<0.001; and “****” represented p<0.0001.
(§1) The concentration of Sample 1 was 10 μM, the concentration of Samples 2-9 was 20 μM, and the concentration of IsoA was 10 μg/mL. The measured value of the control without adding any sample was set to 100%, and other values were adjusted accordingly. […] The concentration of Sample 1 was 100 μM, the concentration of Samples 2-9 was 200 μM, and the concentration of IsoA was 100 μg/mL. The measured value of the control without adding any sample was set to 100%, and other values were adjusted accordingly.

Aβ42 = biological target: T1, Aβ42 (Homo sapiens, UniProt P05067); experiment: Aβ42 aggregation, thioflavin T assay; format: biochemical; details: for inhibition at 20 µM / inhibition at 200 µM: 30 minutes 37° C.; for inhibition at 20 µM: FIG. 4A; for inhibit Aβ42 accumulation (ThT assay): summary of Experimental example 4; for inhibition at 200 µM: FIG. 4B
T1 construct: Aβ42 was redissloved in DMSO to 2.5 mg/mL
T1 sequence (P05067 672-713 limits assumed): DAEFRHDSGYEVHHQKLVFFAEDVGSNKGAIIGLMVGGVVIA
Protocol: Experimental method: Aβ42 was redissloved in DMSO to 2.5 mg/mL, and Samples 1-9 were diluted with D-PBS to appropriate concentrations. The concentrations of Sample 1 were 10 μM and 100 μM, the concentrations of Sample 2-9 were 20 μM and 200 μM, and the concentrations of IsoA were 10 μg/mL and 100 μg/mL. Each reaction included 1 μL of Aβ42 (final concentration was 0.25 mg/mL) and 9 μL of the testing sample, which each concentration of each sample included 8 groups, and was placed at 37° C. reacting for 30 minutes after thoroughly mixed. 200 μL of Thioflavin T working solution was added and mixed thoroughly after the reaction completed, 200 μL of the which was placed into a black, clear bottom 96-well plate, and the ThT fluorescence intensity (Ex: 440 nm, Em: 482 nm) was measured to determine the level of Aβ42 aggregation. The value of not reacting with any sample (i.e. only containing 1 μL of Aβ42 and 9 μL of D-PBS, which the final concentration of Aβ42 was 0.25 mg/mL) was a control and set to 100%, and isoacteoside (IsoA) was used as a positive control. The values of the samples were compared to the control and expressed in percentage. The experiment results are shown in FIGS. 4A-4B, which show mean±standard error of eight experimental groups (n=8), and the statistical differences between the control and the testing samples were analyzed by Dunnett's multiple comparison test, which “*” represented p<0.05; “**” represented p<0.01; “***” represented p<0.001; and “****” represented p<0.0001.
as §1, with “μg/mL. The level of Aβ42 accumulation was measured by ThT assay, which the measured value” for “μg/mL. The measured value”

[3] = summary of Experimental examples 1 and 2

Structure (SMILES) | effects of inhibiting Aβ40 accumulation ([1]; FIGS. 1A-1D) | inhibit Aβ40 formation in cell [1, 3] | inhibition at 20 µM (Aβ40) | inhibition at 200 µM (Aβ40) | inhibit Aβ40 accumulation (ThT assay) (Aβ40) | cell viability compared to the control [2] | inhibition of human retinal pigment epithelium cell death [2] | inhibition at 20 µM (Aβ42) | inhibit Aβ42 accumulation (ThT assay) (Aβ42) | inhibition at 200 µM (Aβ42) | other results
O=C(/C=C/c1ccc(OCc2ccccc2)c(OCc2ccccc2)c1)OCC1OC(OCCc2ccccc2)C(O)C(O)C1O (centres unmarked) [Sample 3] | had effects of inhibiting Aβ40 accumulation | could inhibit Aβ40 formation in cell |  |  |  |  |  |  |  |  | inhibition at 20 µM ([1]; Homo sapiens, 20 μM, condition of not affecting the cytotoxicity, FIGS. 2A-2B): ~20%; comparison among samples, inhibiting Aβ40 accumulation ([1]; preliminary screening, FIGS. 1A-1D): had the best result of inhibiting Aβ40 accumulation
CC(C)(C)OO [tBHP, tert-butyl hydroperoxide, reference compound] |  |  |  |  |  |  |  |  |  |  | cell death ([2]; tBHP alone (0.2 mM mixed in equal proportions)): 30%-40%
O=C(/C=C/c1ccc(O)c(O)c1)OCC1OC(OCCc2ccc(OCc3ccccc3)cc2)C(O)C(O)C1O (centres unmarked) [Sample 8] |  |  | ~30% | ≤ 70% | could effectively inhibit | even better then the control | could be significantly inhibited | ~60% | could effectively inhibit |  | comparison among samples, Aβ40 accumulation (ThT assay) (Aβ40; summary): had the best result; comparison among samples, Aβ42 accumulation (ThT assay) (Aβ42; summary): had the best result
CC(=O)Oc1ccc(/C=C/C(=O)OCC2OC(OCCc3ccc(Cl)cc3)C(OC(C)=O)C(OC(C)=O)C2OC(C)=O)cc1OC(C)=O (centres unmarked) [Sample 2] |  |  | ~20% | ~20% | could effectively inhibit | even better then the control | could be significantly inhibited | ~20% | could effectively inhibit | ~40% | 
O=C(/C=C/c1ccc(O)c(O)c1)OCC1OC(OCCc2ccccc2)C(O)C(O)C1O (centres unmarked) [Sample 4] | had effects of inhibiting Aβ40 accumulation | could inhibit Aβ40 formation in cell | ~30% | ~20% | could effectively inhibit |  |  | ~50% | could effectively inhibit | ~70% | effect of increasing the sample concentration on inhibiting Aβ accumulation ([1]; 20, 50 and 100 μM, FIGS. 2A-2B): could not further enhance the efficacy of inhibiting Aβ accumulation
O=C(/C=C/c1ccc(OCc2ccccc2)c(OCc2ccccc2)c1)OCC1OC(OCCc2cccc(OCc3ccccc3)c2)C(O)C(O)C1O (centres unmarked) [Sample 6] | had effects of inhibiting Aβ40 accumulation | could inhibit Aβ40 formation in cell |  |  |  |  |  |  |  |  | inhibition at 50 µM ([1]; Homo sapiens, 50 μM, condition of not affecting the cytotoxicity, FIGS. 2A-2B): ~40%; comparison among samples, Aβ40 formation in cell [1, 3]: had the best result
